Data published in patent US20260226071A1, “2, 4-DIANILINOPYRIMIDINE-BASED AURORA-A KINASE SELECTIVE DEGRADATION INDUCING COMPOUNDS” (UPPTHERA, INC., priority 2023, published 2026).

Molecular target: T1, Aurora kinase A (AURKA) (Homo sapiens, UniProt O14965)
T1 construct: endogenous in cells; host or cells: HeLa LgBit (AURKA-HiBit KI), CRISPR/Cas9 knock-in at the endogenous AURKA locus
T1 sequence (O14965 1-403): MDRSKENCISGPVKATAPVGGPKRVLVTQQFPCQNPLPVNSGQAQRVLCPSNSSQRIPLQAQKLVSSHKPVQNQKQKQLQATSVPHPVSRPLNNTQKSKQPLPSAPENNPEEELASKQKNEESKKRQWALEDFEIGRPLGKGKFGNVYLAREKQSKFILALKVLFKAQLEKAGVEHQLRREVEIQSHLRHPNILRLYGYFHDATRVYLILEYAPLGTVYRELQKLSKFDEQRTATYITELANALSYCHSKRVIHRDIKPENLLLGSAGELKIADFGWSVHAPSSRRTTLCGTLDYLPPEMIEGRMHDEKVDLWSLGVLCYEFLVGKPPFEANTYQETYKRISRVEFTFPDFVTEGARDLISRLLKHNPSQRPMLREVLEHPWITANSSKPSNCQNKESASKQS
Experiment: Luciferase assay for AURKA in HeLa LgBit (AURKA-HiBit KI) cell line
Assay type: cell-based
Settings: HeLa LgBit (AURKA-HiBit KI) cells, measured after 12 hours
Text: HeLa cell lines that stably express LgBit were constructed via LgBit vector transfection. Then, donor DNA and guide RNA for insertion of HiBit amino acid sequence at C-terminus of inherent Aurora kinase A (AURKA) genes were designed and constructed. Thereafter, they were transfected into the cell lines with CRISPR/Cas9 expression vector system. HiBit gene knock-in single cells were selected, passaged and used for the experiments.
For cell culture, DMEM (Gibco, Cat. No. 11995-065; Lot. No. 2562497), FBS (Gibco, Cat. No. 16000-044; Lot. No. 2511328P), Penicillin/Streptomycin (PS) (Gibco, Cat. No. 15140-122; Lot. No. 2585636), 90 mm^2 cell culture dish (SPL, Cat. No. 20100), 96-well white plate, PBS pH 7.4 (Gibco, […]), TrypLE™ Express (Gibco, Cat. No. 12605-010; Lot. No. 2522525), counting chamber (hematocytometer) (Hirschmann, Cat. No. 8100204; Lot. No. 8021087) and 0.4% Trypan Blue solution (DYNEBIO, Cat. No. CBT3710; Lot. No. 20231017) were used. Cells were cultured in DMEM supplemented with 10% FBS and 1% PS and incubated in CO2 incubator (Thermo, Cat. No. 4111) at 37° C., 5% CO2 condition.
HeLa LgBit (AURKA-HiBit KI) cell lines were cultured in 90 mm^2 cell culture dish, and 3×10^4 cells in […] of total medium volume were seeded and incubated for 18 hours in CO2 incubator. Then, Eudurazine (Promega, Cat. No. N247B; Lot. No. 495218) was added to each well to make up 1% of the total volume, followed by further incubation for 2 hours in CO2 incubator.
The present compounds were fully dissolved in DMSO (Sigma-Aldrich Cat. No. D2438, Lot. No. RNBL7287) and 10 nM or 100 nM of total concentration were used in the experiment. After adding the compounds in each well of 96-well white plate, the plate was placed in the plate reader (BMG Labtech, CLARIOstar Plus) for real-time analysis. The wavelength for analysis was set to […], and the luminescence value was measured after 12 hours. The luminescence value was analyzed through an Excel program.

Row | Structure (SMILES) | luminescence value (Level) (10 nM compound) | luminescence value (Level) (100 nM compound)
1 | O=C1CCC(Nc2ccc(N3CCC(CN4CC5(C4)CN(C(=O)c4ccc(Nc6ncc(F)c(Nc7ccc(C(=O)Nc8ccccc8Cl)cc7)n6)cc4)C5)CC3)cc2)C(=O)N1 (centres unmarked) [Compound 31, N-(2-chlorophenyl)-4-((2-((4-(6-((1-(4-((2,6-dioxopiperidin-3-yl)amino)phenyl)piperidin-4-yl)methyl)-2,6-diazaspiro[3.3]heptane-2-carbonyl)phenyl)amino)-5-fluoropyrimidin-4-yl)amino)benzamide] | C (C is 0.5 to 0.7) | B (B is 0.2 to 0.4)
2 | O=C1CCC(Nc2ccc(N3CCC(CN4C[C@@H]5[C@H](C4)[C@H]5NC(=O)c4ccc(Nc5ncc(F)c(Nc6ccc(C(=O)Nc7ccccc7Cl)cc6)n5)cc4)CC3)cc2)C(=O)N1 (stereo partly drawn) [Compound 40, N-(2-chlorophenyl)-4-((2-((4-(((1R,5S,6s)-3-((1-(4-((2,6-dioxopiperidin-3-yl)amino)phenyl)piperidin-4-yl)methyl)-3-azabicyclo[3.1.0]hexan-6-yl)carbamoyl)phenyl)amino)-5-fluoropyrimidin-4-yl)amino)benzamide] | B (B is 0.3 to 0.5) | A (A is <0.2)
3 | O=C1CCC(Nc2ccc(N3CCCN(C[C@H]4CC[C@H](NC(=O)c5ccc(Nc6ncc(F)c(Nc7ccc(C(=O)Nc8ccccc8Cl)cc7)n6)cc5)CC4)CC3)cc2)C(=O)N1 (some centres unmarked) [Compound 39, N-(2-chlorophenyl)-4-((2-((4-(((1r,4r)-4-((4-(4-((2,6-dioxopiperidin-3-yl)amino)phenyl)-1,4-diazepan-1-yl)methyl)cyclohexyl)carbamoyl)phenyl)amino)-5-fluoropyrimidin-4-yl)amino)benzamide] | B (B is 0.3 to 0.5) | A (A is <0.2)
4 | O=C1CCC(c2ccc(C#CC3CCN(C4CCN(C(=O)c5ccc(Nc6ncc(F)c(Nc7ccc(C(=O)Nc8ccccc8Cl)cc7)n6)cc5)CC4)CC3)cn2)C(=O)N1 (centres unmarked) [Compound 20, N-(2-chlorophenyl)-4-((2-((4-(4-((6-(2,6-dioxopiperidin-3-yl)pyridin-3-yl)ethynyl)-[1,4′-bipiperidine]-1′-carbonyl)phenyl)amino)-5-fluoropyrimidin-4-yl)amino)benzamide] | D (D is 0.7 to 0.8) | C (C is 0.4 to 0.6)
5 | CN(CC1CCN(c2ccc(C3CCC(=O)NC3=O)cc2)CC1)[C@@H]1CCC[C@@H]1NC(=O)c1ccc(Nc2ncc(F)c(Nc3ccc(C(=O)Nc4ccccc4Cl)cc3)n2)cc1 (stereo partly drawn) [Compound 10, N-(2-chlorophenyl)-4-((2-((4-(((1S,2R)-2-(((1-(4-(2,6-dioxopiperidin-3-yl)phenyl)piperidin-4-yl)methyl)(methyl)amino)cyclopentyl)carbamoyl)phenyl)amino)-5-fluoropyrimidin-4-yl)amino)benzamide] | D (D is 0.7 to 0.8) | C (C is 0.4 to 0.6)
6 | O=C1CCC(Nc2ccc(N3CC4CN(CC5CN(C(=O)c6ccc(Nc7ncc(F)c(Nc8ccc(C(=O)Nc9ccccc9Cl)cc8)n7)cc6)C5)CC4C3)cc2)C(=O)N1 (centres unmarked) [Compound 34, N-(2-chlorophenyl)-4-((2-((4-(3-((5-(4-((2,6-dioxopiperidin-3-yl)amino)phenyl)hexahydropyrrolo[3,4-c]pyrrol-2(1H)-yl)methyl)azetidine-1-carbonyl)phenyl)amino)-5-fluoropyrimidin-4-yl)amino)benzamide] | B (B is 0.3 to 0.5) | A (A is <0.2)
7 | O=C1CCC(Nc2ccc(N3C[C@@H]4[C@@H](CN5CCC(NC(=O)c6ccc(Nc7ncc(F)c(Nc8ccc(C(=O)Nc9ccccc9Cl)cc8)n7)cc6)CC5)[C@@H]4C3)cc2)C(=O)N1 (stereo partly drawn) [Compound 27, N-(2-chlorophenyl)-4-((2-((4-((1-(((1R,5S,6s)-3-(4-((2,6-dioxopiperidin-3-yl)amino)phenyl)-3-azabicyclo[3.1.0]hexan-6-yl)methyl)piperidin-4-yl)carbamoyl)phenyl)amino)-5-fluoropyrimidin-4-yl)amino)benzamide] | B (B is 0.3 to 0.5) | B (B is 0.2 to 0.4)

Next, values leading:

Row | luminescence value (Level) (10 nM compound) | luminescence value (Level) (100 nM compound) | Structure (SMILES)
8 | C (C is 0.5 to 0.7) | B (B is 0.2 to 0.4) | O=C1CCC(c2ccc(N3CCC(CCN4CCC(NC(=O)c5ccc(Nc6ncc(F)c(Nc7ccc(C(=O)Nc8ccccc8Cl)cc7)n6)cc5)CC4)CC3)cc2)C(=O)N1 (centres unmarked) [Compound 19, N-(2-chlorophenyl)-4-((2-((4-((1-(2-(1-(4-(2,6-dioxopiperidin-3-yl)phenyl)piperidin-4-yl)ethyl)piperidin-4-yl)carbamoyl)phenyl)amino)-5-fluoropyrimidin-4-yl)amino) benzamide]
9 | B (B is 0.3 to 0.5) | B (B is 0.2 to 0.4) | O=C1CC[C@H](NC(=O)c2ccc(N3CCN(CCC4CCN(NC(=O)c5ccc(Nc6ncc(F)c(Nc7ccc(C(=O)Nc8ccccc8Cl)cc7)n6)cc5)CC4)CC3)cc2F)C(=O)N1 [Compound 89, (S)-4-(4-(2-(1-(4-((4-((4-((2-chlorophenyl)carbamoyl)phenyl)amino)-5-fluoropyrimidin-2-yl)amino)benzamido)piperidin-4-yl)ethyl)piperazin-1-yl)-N-(2,6-dioxopiperidin-3-yl)-2-fluorobenzamide]
10 | B (B is 0.3 to 0.5) | A (A is <0.2) | CN(C(=O)c1ccc(Nc2nc(Nc3ccc(C(=O)NN4CCC(CCN5CCN(c6ccc(C7CCC(=O)NC7=O)cc6)CC5)CC4)cc3)ncc2F)cc1)c1ccccc1Cl (centres unmarked) [Compound 102, 4-[[4-[4-[(2-chlorophenyl)-methyl-carbamoyl]anilino]-5-fluoro-pyrimidin-2-yl]amino]-N-[4-[2-[4-[4-(2,6-dioxo-3-piperidyl)phenyl]piperazin-1-yl]ethyl]-1-piperidyl]benzamide]
11 | B (B is 0.3 to 0.5) | A (A is <0.2) | O=C1CCC(c2ccc(N3CCN(CCN4CC[C@H](NC(=O)c5ccc(Nc6ncc(F)c(Nc7ccc(C(=O)Nc8ccccc8Cl)cc7)n6)cc5)C4)CC3)cc2)C(=O)N1 (stereo partly drawn) [Compound 68, N-(2-chlorophenyl)-4-((2-((4-(((3S)-1-(2-(4-(4-(2,6-dioxopiperidin-3-yl)phenyl)piperazin-1-yl)ethyl)pyrrolidin-3-yl)carbamoyl)phenyl)amino)-5-fluoropyrimidin-4-yl)amino)benzamide]
12 | B (B is 0.3 to 0.5) | B (B is 0.2 to 0.4) | O=C1CC[C@H](NC(=O)c2ccc(N3CCN(CCC4CCN(NC(=O)c5ccc(Nc6ncc(F)c(Nc7ccc(C(=O)Nc8ccccc8Cl)cc7)n6)cc5)CC4)CC3)cn2)C(=O)N1 [Compound 87, (S)-5-(4-(2-(1-(4-((4-((4-((2-chlorophenyl)carbamoyl)phenyl)amino)-5-fluoropyrimidin-2-yl)amino)benzamido)piperidin-4-yl)ethyl)piperazin-1-yl)-N-(2,6-dioxopiperidin-3-yl)picolinamide]
13 | D (D is 0.7 to 0.8) | B (B is 0.2 to 0.4) | O=C1CCC(NC(=O)c2cccc(N3CCC(CN4CCN(C(=O)Cc5ccc(Nc6ncc(F)c(Nc7ccc(C(=O)Nc8ccccc8Cl)cc7)n6)cc5)CC4)CC3)c2)C(=O)N1 (centres unmarked) [Compound 47, 3-(4-((4-(2-(4-((4-((4-((2-chlorophenyl)carbamoyl)phenyl)amino)-5-fluoropyrimidin-2-yl)amino)phenyl)acetyl)piperazin-1-yl)methyl)piperidin-1-yl)-N-(2,6-dioxopiperidin-3-yl)benzamide]
